Values quoted from earlier work, collected in EP0919231A1, “Injectable parasiticide composition and process for the preparation” (Biogenesis, S.A., priority 1997, dated 1999).

Columns and labels:
[1] = bovines; for detection of parent drug in plasma: after administering albendazole or phenbendazole, found in the gastrointestinal lumen; for detected in plasma, time postreatment: metabolite after administering albendazole or phenbendazole respectively
[2] = test system: Trichostrongylus colubriformis; details: strain resistant to benzimidazoles; intravenous compared with oral administration
[3] = test system: Haemonchus contortus; details: strain resistant to benzimidazoles; intravenous compared with oral administration

Row | Structure (SMILES) | detection of parent drug in plasma [1] | detected in plasma, time postreatment [1] [h] | effectiveness intravenous versus oral [2] | effectiveness intravenous versus oral [3]
1 | CCCSc1ccc2nc(NC(=O)OC)[nH]c2c1 [albendazole] | not detected |  |  | 
2 | COC(=O)Nc1nc2ccc([S+]([O-])c3ccccc3)cc2[nH]1 (stereo not drawn) [oxphendazole, methyl ester of [(5-phenyl-sulphinyl)-1H-benzimidazol-2-il] carbamic acid] |  | ≤ 36 | more effective | more effective
3 | COC(=O)Nc1nc2ccc(Sc3ccccc3)cc2[nH]1 [phenbendazole] | not detected |  |  | 
4 | CCC[S+]([O-])c1ccc2[nH]c(NC(=O)OC)nc2c1 (stereo not drawn) [ricobendazole, methyl ester of [(5-propyl-sulphinyl)-1H-benzimidazol-2-il] carbamic acid] |  | ≤ 36 |  | 
